Experimental data: ChEMBL document CHEMBL1201862, “PubChem BioAssay data set” (2004)
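48-hour exposure; five concentrations; linearly interpolated endpoints. The concentration for 50% growth inhibition is given as GI50.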 Activity calls are given as the source filed them. No stated cut-off is given here; in the data, active = GI50 up to about 1.1 µM and inactive = higher.

Legend:
Experiment in all cases: DTP human tumour cell line panel, 48 h
786-0 = tested on: 786-0
ACHN = tested on: ACHN
HCC 2998 = tested on: HCC 2998
HL-60 = tested on: HL-60
HOP-92 = tested on: HOP-92
NCI-H226 = tested on: NCI-H226
RXF 393 = tested on: RXF 393
SF-539 = tested on: SF-539
SNB-78 = tested on: SNB-78
UACC-62 = tested on: UACC-62
BT-549 = tested on: BT-549
DU-145 = tested on: DU-145
Hs-578T = tested on: Hs-578T
MCF7 = tested on: MCF7
MDA-MB-231 = tested on: MDA-MB-231
MDA-MB-435 = tested on: MDA-MB-435
MDA-N = tested on: MDA-N
NCI/ADR-RES = tested on: NCI/ADR-RES
SR = tested on: SR
T47D = tested on: T47D

Measured: GI50

O=C(O)CCC(=O)N1c2ccccc2CC1c1c[nH]c2ccccc12 (configuration not stated)
inactive: 786-0 > 100 µM | ACHN > 100 µM | HCC 2998 > 100 µM | HL-60 > 100 µM | HOP-92 > 100 µM | NCI-H226 > 100 µM | RXF 393 > 100 µM | SF-539 > 100 µM | SNB-78 > 100 µM | UACC-62 > 100 µM

O=C1c2ccccc2S(=O)(=O)c2cc(-c3nn[nH]n3)ccc21 [DOXANTRAZOLE]
inactive: 786-0 > 100 µM | ACHN > 100 µM | BT-549 > 100 µM | DU-145 > 100 µM | HCC 2998 > 100 µM | HL-60 > 100 µM | HOP-92 > 100 µM | Hs-578T > 100 µM | MCF7 > 100 µM | MDA-MB-231 > 100 µM | MDA-MB-435 > 100 µM | MDA-N > 100 µM | NCI-H226 > 100 µM | NCI/ADR-RES > 100 µM | RXF 393 > 100 µM | SF-539 > 100 µM | SR > 100 µM | T47D > 76.4 µM | UACC-62 > 100 µM

Clc1ccc(-c2nn3c(COc4ccc(OCc5nnc6sc(-c7ccc(Cl)cc7)nn56)c(Cl)c4)nnc3s2)cc1
inactive: 786-0 13.7 µM | ACHN 44.2 µM | BT-549 18.9 µM | DU-145 37.5 µM | HCC 2998 20.2 µM | HL-60 17.7 µM | HOP-92 17.5 µM | Hs-578T 30.3 µM | MCF7 35.7 µM | MDA-MB-231 32.2 µM | MDA-MB-435 33.7 µM | MDA-N 22 µM | NCI-H226 74.5 µM | NCI/ADR-RES 27.7 µM | RXF 393 15.8 µM | SF-539 24 µM | SR 19.1 µM | T47D 36.5 µM | UACC-62 > 100 µM

Cc1nc(O)nc2nc3ccc(Cl)cc3c(NC(C)(CO)CO)c12
inactive: 786-0 > 57.4 µM | ACHN 39 µM | BT-549 62.8 µM | DU-145 > 70.1 µM | HCC 2998 > 100 µM | HL-60 > 100 µM | HOP-92 74.1 µM | Hs-578T 46.9 µM | MCF7 > 68.4 µM | MDA-MB-231 31.6 µM | MDA-MB-435 > 100 µM | MDA-N 99.1 µM | NCI-H226 > 84.5 µM | NCI/ADR-RES > 100 µM | RXF 393 20.1 µM | SF-539 > 50.6 µM | SR 99.8 µM | T47D 17.6 µM | UACC-62 > 75.3 µM

CCN(CC)CCSc1nc2cccc([N+](=O)[O-])c2[nH]1
inactive: HCC 2998 > 100 µM | HL-60 > 100 µM | HOP-92 33.4 µM | NCI-H226 > 100 µM | RXF 393 > 100 µM | SF-539 > 100 µM | SNB-78 > 100 µM | UACC-62 > 100 µM

Nc1ncnc2c1ncn2COC/C=C/I
inactive: 786-0 > 100 µM | ACHN > 100 µM | HCC 2998 > 100 µM | HOP-92 > 100 µM | NCI-H226 > 100 µM | RXF 393 > 100 µM | SF-539 > 100 µM | SNB-78 > 100 µM | SR > 100 µM | UACC-62 > 100 µM

COc1cc(CCc2ccc(OCCN(C)C)cc2)cc(OC)c1OC
inactive: 786-0 > 100 µM | ACHN > 100 µM | HL-60 33.7 µM | HOP-92 52.4 µM | NCI-H226 79.6 µM | RXF 393 41.8 µM | SF-539 > 100 µM | SNB-78 > 100 µM | SR 49.8 µM | UACC-62 > 100 µM

CC1=C(Oc2ccccc2)C(CCC(=O)O)c2c(O)cc(Cl)c(O)c21 (configuration not stated)
inactive: 786-0 > 100 µM | HCC 2998 > 100 µM | HL-60 > 100 µM | HOP-92 > 100 µM | RXF 393 > 100 µM | SF-539 > 100 µM | SNB-78 > 100 µM | SR > 100 µM

COc1c2c(cc3c1OCO3)C13C=CC(OC)CC1N(CC3)C2.[O-][Cl+3]([O-])([O-])O (configuration not stated)
inactive: 786-0 > 100 µM | ACHN > 100 µM | BT-549 > 100 µM | DU-145 > 100 µM | HCC 2998 90.8 µM | HL-60 39.4 µM | HOP-92 > 100 µM | Hs-578T > 100 µM | MCF7 > 100 µM | MDA-MB-231 > 100 µM | MDA-MB-435 34.3 µM | MDA-N 37.3 µM | NCI-H226 > 100 µM | NCI/ADR-RES > 100 µM | RXF 393 > 100 µM | SF-539 > 100 µM | SR 4.9 µM | T47D > 100 µM | UACC-62 > 100 µM
